Source: article PMC13168289, “Potent acridone antimalarial against all three life stages of Plasmodium” (Nature Communications, 2026)
Where two headings read alike, the source gives them in different places.

Tests used:
[1] = host hepatocyte viability in the P. cynomolgi assay; type: cell-based, rhesus; settings: rhesus monkey; radical cure mode; read-out: cytotoxicity CC50
Method: The liver-stage P. cynomolgi assay was designed to identify anti-hypnozoite drugs utilizing a 384-well in vitro culture system[31],[37]. Briefly, cryopreserved primary simian hepatocytes (donor lots XGB, OQB, and QHO: BioIVT, Inc.) were seeded in collagen-coated 384-well plates and infected with P. cynomolgi bastianellii (B strain) sporozoites dissected from infected Anopheles dirus mosquitoes. Test compounds were solubilized in 100% DMSO and serially diluted 2-fold to generate up to a 12-point dose-response curve, maintaining a final DMSO concentration of 0.1% across all wells. Two distinct treatment modes were evaluated. For the prophylactic assay, to assess the prevention of infection, compound exposure began 1-hour post-infection with daily media changes on Days 1 and 2. For the radical cure assay, to assess activity against established liver forms, drugs were administered daily from Day 4 through Day 7 post-infection. […] For readout on Day 8, plates were fixed and stained via immunofluorescence to visualize parasite forms (hypnozoites and schizonts) and hepatocyte nuclei, and images were acquired using an Operetta CLS high-content imaging system (PerkinElmer). Host hepatocyte viability was measured in parallel to determine compound toxicity. Parasite forms were automatically quantified using Harmony 4.9 software, and percent inhibition and toxicity were calculated relative to in-plate DMSO vehicle controls. IC50 and CC50 (half-maximal cytotoxic concentrations) were determined by fitting dose-response data to a four-parameter logistic (variable slope) model using a custom Python script incorporating a grid search algorithm.

[2] = cited from earlier work
[3] = test system: P. falciparum K13 mutant parasites SP045 and SP060; assay: Growth, Resistance, and Recovery Assay (GRRA), ring-stage survival dose-response; type: cell-based, Plasmodium falciparum; settings: read-out: GRRA50
Method: These isolates carry the validated R561H Kelch 13 propeller domain mutation associated with delayed parasite clearance in East Africa[24],[25]. Using the 6-hour GRRA[23], all strains were thawed, frozen, and cultured under standard conditions at 5% hematocrit. Samples parasitemia was measured by flow cytometry. Parasite cultures that were predominantly segmented schizonts were synchronized using a single Percoll layer method. Cultures that met quality control requirements of ≥70% early ring stage and ≥1% parasitemia were adjusted to 0.25% parasitemia at 2% hematocrit. […] The GRRA50 implements 11 RSA experiments to generate a dose-response curve for each parasite line per drug. Master mixes of samples were aliquoted into 2 technical replicates of 275 µL each in 96 well plates (2 treated each condition, 2 untreated). At 6 h post-exposure, 200 µL of media was removed from the wells and replaced with 200 µL of incomplete media and spun for 3 min at 800 g to rinse. The rinse was repeated a total of 3 times, after which 200 µL complete media was added back to the wells. At 120 h post-treatment, thin microscopy smears were made using 2 µL of culture for each sample and 20 µL of culture was transferred to PCR strips and stored at −80 °C until qPCR quantification. A standard curve of known parasitemia was generated using the NF54 parasite line for each qPCR quantification for conversion from Cycle threshold (Ct) to parasitemia and comparison between qPCR experiments. Replicate viability was calculated according to the GRRA method. Each individual reaction mixture and cycling conditions were set to previously used methods. Ct was calculated using AB1 SDA 2.4.1. software. […] We find that commonly reported thresholds (cutoffs) for resistance (e.g., 1% survival in traditional RSA) may not be broadly applicable, especially with lower thresholds subject to potential artifacts due to markedly low survival rates of ART-sensitive and low-level ART-resistant parasites. Regular RSA relies on a single drug concentration, 700 nM. To gain a more fine-scale quantification to compare drug susceptibilities with relevance to therapeutic success and failure, we developed the GRRA50 to generate full dose-response curves for precise quantitative comparisons.

[4] = in vivo pharmacokinetics, single oral dose; set-up: species or system ICR-CD1 mice; settings: 40 mg/kg oral
Method: PK studies were conducted using well-established methods[21],[31],[50]. Four to five weeks old male and female outbred ICR-CD1 mice (Charles River Laboratories. Inc. Raleigh, NC) weighing 23–35 g were used for PK studies. Animals were assigned unique study numbers via ear tags and cage cards and were randomly assigned to treatment or control groups (n = 3 per group) using a weigh-stratified randomization procedure. All animals were quarantined and acclimatized for 7 days prior to study initiation and were housed in a 12:12 light/dark cycle with food and water provided ad libitum. […] At each time point, a terminal whole blood sample was collected by cardiac puncture using heparinized syringes (Heparin, Hospira, Lake Forest, IL), while mice were under anesthesia in accordance with the approved IACUC protocol. Following the separation of appropriate aliquots, plasma was obtained from the whole blood via centrifugation at 16,200 rpm for 10 min at 4 °C. Mice were humanely euthanized as described in the protocol, after which the liver samples were also collected and weighed at each experimental time point. All tissue samples were immediately preserved on dry ice and later stored at −80 °C until analytical work was performed. Drug concentrations were determined for each sample taken from animals dosed with the test compound. PK parameters such as time to maximum plasma concentration (Tmax), maximum plasma concentration (Cmax), the apparent elimination half-life (t1/2), area under the curve (AUC), etc., were obtained using noncompartmental analysis via the Phoenix WinNonlin software package (version 6.4; Pharsight Corp., Mountain View, CA).

[5] = test system: Salmonella typhimurium TA98 and TA100; assay: Ames assay; type: cell-based; settings: 10 µM; TA98 and TA100, with and without S9 activation
Method: Mutagenicity was assessed using the Ames assay[54] (EBPI, Ontario, Canada) against S. typhimurium TA100 and TA98, with and without S9 activation. The tester strain S. typhimurium (TA100 and TA98) cultures were inoculated from the lyophilized pellets and grown in nutrient broth provided by EBPI. Each inoculated vial (5 mL volume with antibiotics) was placed overnight in the incubator at 37 °C. The positive controls for the assay were 1.0 µg/µL 2-aminoanthracene (2-AA) for incubations with the S9 mix and 5 µg/mL sodium azide (NaN3, used for TA100) and 300 µg/mL 2-nitrofluorene (2NF, used for TA98) for incubations without the S9 mix. […] An aliquot (0.2 mL) of the mixture was then added to each well of a 96-well plate. The 96-well plates were covered, sealed in zip-lock bags, and incubated for 5 days at 37 °C. Plates were scored visually, and the positive wells against background mutations were statistically analyzed.

For `O=C1C(O)=C([C@H]2CC[C@H](c3ccc(Cl)cc3)CC2)C(=O)c2ccccc21` [ATV, atovaquone], the CC50 at 4 days [1] is listed as 3960 nM, the T1/2 ([2]; healthy mice, ref PMID: 23292347) is listed as “about 13 h” and the t1/2 ([2]; mice plasma) is listed as ~ 13 h.

In the case of `O=c1c2ccc(Oc3ccc(OC(F)(F)F)cc3)cc2[nH]c2cc(Cl)cc(F)c12` [T111], the IC50 ([3]; SP045 (K13 V555A, ART-S)) is reported as 0.78 nM, the IC50 ([3]; SP060 (K13 R561H, ART-R)) is reported as 0.87 nM and the AUCinf ([4]; female, liver) is reported as 23,495 ng.h/mL. For the same molecule, the AUClast ([4]; female, liver) was 23,384 ng.h/mL, the Cmax ([4]; female, liver) was 1503 ng/mL and the Tmax ([4]; female, liver) was 8.0 h. For the same molecule, the AUCinf ([4]; female, plasma) was 185 ng·h/mL, the AUClast ([4]; female, plasma) was 169 ng·h/mL and the Cmax ([4]; female, plasma) was 11.3 ng/mL. For the same molecule, the Tmax ([4]; female, plasma) was 4.0 h, the AUCinf ([4]; male, liver) was 26,044 ng.h/mL and the AUClast ([4]; male, liver) was 25,969 ng.h/mL. For the same molecule, the Cmax ([4]; male, liver) was 1704 ng/mL, the Tmax ([4]; male, liver) was 1.0 h and the AUCinf ([4]; male, plasma) was 180 ng·h/mL. The AUClast ([4]; male, plasma) was 156 ng·h/mL, the Cmax ([4]; male, plasma) was 6.8 ng/mL and the Tmax ([4]; male, plasma) was 4.0 h. The Ames test result [5] was “negative”.
